Assay results taken from PubChem BioAssay AID1963846 (Molecular Pharmacology Branch, DTP, NCI, 2024).

Tested on: 454973-116-R2-J3-PDC complex spheroid viability
Assay: Anticancer human tumor 454973-116-R2-J3-PDC patient-derived pancreatic carcinoma cell line growth inhibition [POLQ]
Conditions: for IC50: curve of first compound; for viability, T/C: stronger effect = lower value
In short: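 Complex spheroid viability model combining PDC tumour cells with endothelial (HUVEC) and MSC stromal cells. Novobiocin, ART-558 or RP6685 were tested singly and in combination with standard and investigational anticancer drugs. Each was titrated in half-log steps from near clinical Cmax, or from 10 microM where Cmax was unknown.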

[1] = second compound 0.0316 µM, first compound 0.0316 µM
[2] = second compound 0.0316 µM, first compound 0.1 µM
[3] = second compound 0.1 µM, first compound 0.0316 µM
[4] = second compound 0.1 µM, first compound 0.1 µM
[5] = second compound 0.316 µM, first compound 0.0316 µM
[6] = second compound 0.316 µM, first compound 0.1 µM
[7] = second compound 1 µM, first compound 0.0316 µM
[8] = second compound 1 µM, first compound 0.1 µM
[9] = second compound 3.16 µM, first compound 0.0316 µM
[10] = second compound 3.16 µM, first compound 0.1 µM
[11] = second compound 10 µM, first compound 0.0316 µM
[12] = second compound 10 µM, first compound 0.1 µM
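Also: spheroids exposed to drugs for seven days before measurement.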
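For viability, T/C in this document: percent viability relative to DMSO vehicle control wells taken as 100%.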

## CC[C@@]1(O)C(=O)OCc2c1cc1n(c2=O)Cc2cc3c(CN(C)C)c(O)ccc3nc2-1 + COC1C(OC(N)=O)C(O)C(Oc2ccc3c(O)c(NC(=O)c4ccc(O)c(CC=C(C)C)c4)c(=O)oc3c2C)OC1(C)C
Second compound 0.0316 µM
  IC50: 20 nM
Second compound 0.1 µM
  IC50: 17.8 nM
Second compound 0.316 µM
  IC50: 18.4 nM
Second compound 1 µM
  IC50: 18.9 nM
Second compound 3.16 µM
  IC50: 18.3 nM
Second compound 10 µM
  IC50: 17.5 nM
Second compound 0.0316 µM, first compound 0.000316 µM
  viability, T/C: 113%
Second compound 0.0316 µM, first compound 0.001 µM
  viability, T/C: 106%
Second compound 0.0316 µM, first compound 0.00316 µM
  viability, T/C: 105%
Second compound 0.0316 µM, first compound 0.01 µM
  viability, T/C: 86.8%
[1]
  viability, T/C: 25.5%
[2]
  viability, T/C: 14.9%
Second compound 0.1 µM, first compound 0.000316 µM
  viability, T/C: 106%
Second compound 0.1 µM, first compound 0.001 µM
  viability, T/C: 106%
Second compound 0.1 µM, first compound 0.00316 µM
  viability, T/C: 103%
Second compound 0.1 µM, first compound 0.01 µM
  viability, T/C: 82.6%
[3]
  viability, T/C: 17.1%
[4]
  viability, T/C: 16.3%
Second compound 0.316 µM, first compound 0.000316 µM
  viability, T/C: 109%
Second compound 0.316 µM, first compound 0.001 µM
  viability, T/C: 100%
Second compound 0.316 µM, first compound 0.00316 µM
  viability, T/C: 108%
Second compound 0.316 µM, first compound 0.01 µM
  viability, T/C: 88.9%
[5]
  viability, T/C: 15.8%
[6]
  viability, T/C: 13.8%
Second compound 1 µM, first compound 0.000316 µM
  viability, T/C: 113%
Second compound 1 µM, first compound 0.001 µM
  viability, T/C: 101%
Second compound 1 µM, first compound 0.00316 µM
  viability, T/C: 108%
Second compound 1 µM, first compound 0.01 µM
  viability, T/C: 91.1%
[7]
  viability, T/C: 15.8%
[8]
  viability, T/C: 18.1%
Second compound 3.16 µM, first compound 0.000316 µM
  viability, T/C: 110%
Second compound 3.16 µM, first compound 0.001 µM
  viability, T/C: 113%
Second compound 3.16 µM, first compound 0.00316 µM
  viability, T/C: 107%
Second compound 3.16 µM, first compound 0.01 µM
  viability, T/C: 79.6%
[9]
  viability, T/C: 22.8%
[10]
  viability, T/C: 19%
Second compound 10 µM, first compound 0.000316 µM
  viability, T/C: 109%
Second compound 10 µM, first compound 0.001 µM
  viability, T/C: 104%
Second compound 10 µM, first compound 0.00316 µM
  viability, T/C: 99.9%
Second compound 10 µM, first compound 0.01 µM
  viability, T/C: 76.5%
[11]
  viability, T/C: 21.4%
[12]
  viability, T/C: 20.3%

## CNCc1ccc(-c2[nH]c3cc(F)cc4c3c2CCNC4=O)cc1 + COC1C(OC(N)=O)C(O)C(Oc2ccc3c(O)c(NC(=O)c4ccc(O)c(CC=C(C)C)c4)c(=O)oc3c2C)OC1(C)C
Second compound 0.0316 µM
  IC50: > 10000 nM
Second compound 0.1 µM
  IC50: > 10000 nM
Second compound 0.316 µM
  IC50: > 10000 nM
Second compound 1 µM
  IC50: > 10000 nM
Second compound 3.16 µM
  IC50: > 10000 nM
Second compound 10 µM
  IC50: > 10000 nM
[1]
  viability, T/C: 99.4%
[2]
  viability, T/C: 115%
Second compound 0.0316 µM, first compound 0.316 µM
  viability, T/C: 98.6%
Second compound 0.0316 µM, first compound 1 µM
  viability, T/C: 106%
Second compound 0.0316 µM, first compound 3.16 µM
  viability, T/C: 104%
Second compound 0.0316 µM, first compound 10 µM
  viability, T/C: 92%
[3]
  viability, T/C: 98.2%
[4]
  viability, T/C: 103%
Second compound 0.1 µM, first compound 0.316 µM
  viability, T/C: 103%
Second compound 0.1 µM, first compound 1 µM
  viability, T/C: 104%
Second compound 0.1 µM, first compound 3.16 µM
  viability, T/C: 106%
Second compound 0.1 µM, first compound 10 µM
  viability, T/C: 89.1%
[5]
  viability, T/C: 102%
[6]
  viability, T/C: 113%
Second compound 0.316 µM, first compound 0.316 µM
  viability, T/C: 100%
Second compound 0.316 µM, first compound 1 µM
  viability, T/C: 105%
Second compound 0.316 µM, first compound 3.16 µM
  viability, T/C: 95.8%
Second compound 0.316 µM, first compound 10 µM
  viability, T/C: 87.8%
[7]
  viability, T/C: 106%
[8]
  viability, T/C: 99%
Second compound 1 µM, first compound 0.316 µM
  viability, T/C: 101%
Second compound 1 µM, first compound 1 µM
  viability, T/C: 98.7%
Second compound 1 µM, first compound 3.16 µM
  viability, T/C: 97.8%
Second compound 1 µM, first compound 10 µM
  viability, T/C: 88%
[9]
  viability, T/C: 112%
[10]
  viability, T/C: 104%
Second compound 3.16 µM, first compound 0.316 µM
  viability, T/C: 101%
Second compound 3.16 µM, first compound 1 µM
  viability, T/C: 98.8%
Second compound 3.16 µM, first compound 3.16 µM
  viability, T/C: 99.3%
Second compound 3.16 µM, first compound 10 µM
  viability, T/C: 87.5%
[11]
  viability, T/C: 103%
[12]
  viability, T/C: 97.3%
Second compound 10 µM, first compound 0.316 µM
  viability, T/C: 92.8%
Second compound 10 µM, first compound 1 µM
  viability, T/C: 98.3%
Second compound 10 µM, first compound 3.16 µM
  viability, T/C: 92%
Second compound 10 µM, first compound 10 µM
  viability, T/C: 85.1%
